ChEMBL document CHEMBL1152311, “A multipronged approach to the study of peruvian ethnomedicinal plants: a legacy of the ICBG-Peru Project” (J Nat Prod, 2009)
Calls of active or inactive are those of the source. No cut-off for these calls is given here.

Assays:
[1] = Cytotoxicity against mouse 3T3 cells; assay type: cell-based; conditions: BALB/3T3 clone A31 cells
MCF7 = test: Cytotoxicity against human MCF7 cells; assay type: functional
Leishmania amazonensis = test: Antileishmanial activity against Leishmania amazonensis axenic amastigotes; assay type: functional
ME-180 = test: Cytotoxicity against human ME180 cells; assay type: functional
DU-145 = test: Cytotoxicity against human DU145 cells; assay type: functional
NCI-H460 = test: Cytotoxicity against human H460 cells; assay type: functional
[2] = tested on: Mycobacterium tuberculosis; test: Antituberculosis activity against Mycobacterium tuberculosis H37Rv; assay type: functional, organism-based
Saccharomyces cerevisiae [3] = test: Antimicrobial activity against Saccharomyces cerevisiae RS321; assay type: functional
HT-29 = test: Cytotoxicity against human HT-29 cells; assay type: functional
PC-3 = test: Cytotoxicity against human PC3 cells; assay type: functional
M14 = test: Cytotoxicity against human M14 cells; assay type: functional
[4] = Cytotoxicity against african green monkey Vero cells; assay type: cell-based; conditions: chlorocebus sabaeus
K562 = test: Cytotoxicity against human K562 cells; assay type: functional
Saccharomyces cerevisiae [5] = test: Antimicrobial activity against Saccharomyces cerevisiae RS322; assay type: functional
Mus musculus = species on record: Mus musculus; test: Wound healing activity in mouse; assay type: functional
Trypanosoma cruzi = test: Antitrypanosomal activity against Trypanosoma cruzi Tulahuen C4 transfected with beta-galactosidase; assay type: functional

SMILES	GI50 [1] [µM]	GI50 (MCF7) [µM]	Activity (Leishmania amazonensis) [µM]	GI50 (ME-180) [µM]	GI50 (DU-145) [µM]	GI50 (NCI-H460) [µM]	Activity [2]	IC12 (Saccharomyces cerevisiae [3]) [µM]	GI50 (HT-29) [µM]	GI50 (PC-3) [µM]	GI50 (M14) [µM]	GI50 [4] [µM]	GI50 (K562) [µM]	IC12 (Saccharomyces cerevisiae [5]) [µM]	ED50 (Mus musculus) [mg/kg]	Activity (Trypanosoma cruzi) [µM]
C/C=C1/C(=O)O[C@]23C=C[C@@H]4C(C(=O)OC)=CO[C@H](O[C@@H]12)[C@@H]43 [PLUMERICIN]	431	> 430	5	> 430	> 430	276	inactive	241	> 430							
C[C@H](C/C=C\C(C)(C)OO)[C@H]1CC[C@@]2(C)[C@@H]3CC[C@H]4C(C)(C)[C@@H](O)CC[C@@]45C[C@@]35CC[C@]12C	82.6	> 136	5.2		78.7	67.4	inactive		65.2	> 136	58.6	> 136	65.2			
COc1ccc(CCC(=O)c2c(O)cc(O)cc2OC)cc1	141	75.7			138	148			117	153	133	134	24.5			
COC(=O)C1=CO[C@H](C)[C@@H]2CN3CC[C@@]4(C(=O)Nc5ccccc54)[C@H]3C[C@@H]12 [UNCARINE E]	62.4			67.9	114	46.1		326						380		
CC(C)=CCC[C@](C)(O)[C@H]1CC=C(C)CC1	54.7	30		18.2	25.8	32.8			28.9	28.5	15.1		40.5		155	
C=CCOc1cc(OC)c(C(=O)/C=C/c2ccc(OC)cc2)c(OCC=C)c1	107	51			54.9	52.3			74.3	47.3	72.2		43.4			1.5
